This passage reports EC50 results from patent US8912227B1, “Bicyclic pyrrole derivatives useful as agonists of GPR120” (Janssen Pharmaceutica NV, priority 2014, dated 2014).

Holding throughout (type): cell-based
Test [1] addresses T1, short form of the GPR120 receptor (Homo sapiens, UniProt Q5NUL3).
T1 construct: host or cells: PathHunter CHO-K1 GPR120S β-Arrestin Cell Line
The experiment in a line: Human GPR120 DiscoveRx PathHunter β-Arrestin assay, Procedure β-arrestin B. The note with it: PathHunter CHO-K1 GPR120S β-Arrestin cell line, 5000 cells/well. The source says: The binding of an agonist (medium/long chain fatty acids or small molecule agonists) to the G-protein-coupled receptor GPR120 activates phospholipase C, leading to release of intracellular Ca^+2 through the generation of inositol 1,4,5-trisphosphate (InsP3 or IP3). GPR120 activation can also trigger intracellular signaling via recruitment of β-Arrestin. In the present method, agonist-induced activation of the human GPR120 receptor is monitored through the use of PathHunter CHO-K1 GPR120 β-Arrestin Cell Line engineered by DiscoveRx, as detailed below. The cell lines are designed to co-express both the ProLink/Enzyme Donor (PK)-tagged GPCR and the Enzyme […] (EA)-tagged Beta-Arrestin fusion proteins. Upon GPR120 receptor stimulation/activation, the EA-tagged β-Arrestin portion is translocated to the tagged receptor, where the two enzyme fragments are brought within close proximity. Under these conditions, these fragments can interact and form an active Beta-gal enzyme complex through Enzyme Fragment Complementation (EFC). This active Beta-gal complex can enzymatically hydrolyse the substrate to produce a detectable light signal; therefore, activation as a function of agonist concentration can be expressed as an EC50 value to determine relative compound activities. This in vitro assay therefore serves to assess compound agonist activity of the GPR120.
In Procedure β-arrestin B the cells used were PathHunter CHO-K1 GPR120S β-Arrestin Cell Line, expressing the short form of the GPR120 receptor (Accession #NM_181745), with 5000 cells/well.
The selected CHO-K1 GPR120 β-Arrestin cells were cultured in Ham's F12 media supplemented with 10% fetal bovine serum (FBS), 1% Glutamine, 1×p/s, 800 μg/ml G418 and 300 μg/ml Hygromycin B (for selection). Cell stocks were maintained and grown in a sub-confluent state using standard cell culture procedures. The day before the experiment, the cells were harvested with non-enzymatic cell dissociation buffer and re-suspended in complete growth media at the desired concentration. A Corning 384-plate was then seeded with the proper number of cells in a volume of 25 μL, per well. The seeded plates were incubated overnight at 37° C.
On the day of the experiment, the Assay Buffer containing (a) HBSS with Ca^++ and Mg^++, (b) 20 mM HEPES, and (c) 0.1% BSA stabilizer (pH 7.4) was prepared. The growth medium was gently removed from the cell plates and 20 μL of Assay Buffer added to each well. The plate was then incubated at 37° C. for 60 mins. Test compounds were serially diluted in Assay Buffer to desired concentrations (more particularly, to one or more of the following μM concentrations: 25 μM, 12.5 μM, 6.25 μM, 3.125 μM, 1.562 μM, 0.781 μM, 0.391 μM, 0.195 μM, 0.098 μM, 0.049 μM, 0.024 μM, 0.012 μM). Five μl of compound dilution was then added to each well and the plate incubated at 37° C. for 90 mins. The detection reagents were prepared according to the manufacture's instruction. Twelve μL of the detection reagents were added to each well and the plate incubated at room temperature for 60 mins.
The plates were read on an EnVision instrument, using Protocol name: Luminescence, Plate type: 384 Costar, Measurement height: 3 mm, Measurement time: 1 s, Aperture: 384 Plate aperture. The % activity relative to the positive control was calculated using the following equation:
The % Activity values were plotted versus the concentration of test compound and fitted to a sigmoidal dose-response curve with a Hill slope=1 (fixed value) using nonlinear regression with GraphPad Prism 5.0 to calculate the EC50 values. The Fitting Equation was: Y=Bottom+(Top−Bottom)/(1+10^((LogEC50−X)*HillSlope)), where X is the log of the concentration and Y is the response.

Test [2] concerns the target T2, Human GPR120 short form (Homo sapiens, UniProt Q5NUL3).
T2 construct: expressed in transfected cells
T2 sequence (Q5NUL3 1-361): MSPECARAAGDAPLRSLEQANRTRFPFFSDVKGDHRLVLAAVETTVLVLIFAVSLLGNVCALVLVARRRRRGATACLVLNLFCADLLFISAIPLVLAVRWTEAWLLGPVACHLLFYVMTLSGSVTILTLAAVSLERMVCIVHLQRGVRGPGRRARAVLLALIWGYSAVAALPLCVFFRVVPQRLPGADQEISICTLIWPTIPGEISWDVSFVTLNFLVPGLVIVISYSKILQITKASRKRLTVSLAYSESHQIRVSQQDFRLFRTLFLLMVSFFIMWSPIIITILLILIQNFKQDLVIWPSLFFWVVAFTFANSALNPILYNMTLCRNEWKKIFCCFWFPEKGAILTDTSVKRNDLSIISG
Kind of test: Human GPR120 calcium flux assay, Procedure Calcium B. The note with it: HEK-293 cells expressing human GPR120 short form, 4200 cells/well, FLIPR.

The target of test [3] is T3, long form of human GPR120 (Homo sapiens, UniProt Q5NUL3).
T3 construct: host or cells: PathHunter CHO-K1 GPR120 β-Arrestin Cell Line
The experiment in a line: Human GPR120 DiscoveRx PathHunter β-Arrestin assay, Procedure β-arrestin A. Particulars: PathHunter CHO-K1 GPR120 β-Arrestin cell line, 3000 cells per well. In outline: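 PathHunter CHO-K1 β-arrestin cells (NM_181745 construct) were plated at 3000/well overnight, then held 60 min in HBSS/20 mM HEPES/0.1% BSA, pH 7.4. Compounds (dilution series 25–0.012 µM before addition) were added for 90 min at 37 °C, followed by 60 min RT luminescence detection. EC50 was fitted from % of positive control with Hill slope fixed at 1.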

In test [4] the target is T2, Human GPR120 short form. Kind of test: Human GPR120 calcium flux assay, Procedure Calcium A. Particulars: HEK-293 cells expressing human GPR120 short form, 2500 cells/well, FLIPR. In outline:
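HEK293 cells stably expressing the human GPR120 short splice variant (NM_001195755.1) were seeded at 2500 cells/well, serum-starved 1 h and loaded with Fluo-4 NW plus probenecid. Compounds (100–0.012 μM solutions, 0.2% final DMSO) were added, and FLIPR calcium flux was read for 300 s. EC50 came from a variable-slope fit (Hill <2) of Fmax−Fmin.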

T1 sequence (P32121 whole entry partner, one chain of several): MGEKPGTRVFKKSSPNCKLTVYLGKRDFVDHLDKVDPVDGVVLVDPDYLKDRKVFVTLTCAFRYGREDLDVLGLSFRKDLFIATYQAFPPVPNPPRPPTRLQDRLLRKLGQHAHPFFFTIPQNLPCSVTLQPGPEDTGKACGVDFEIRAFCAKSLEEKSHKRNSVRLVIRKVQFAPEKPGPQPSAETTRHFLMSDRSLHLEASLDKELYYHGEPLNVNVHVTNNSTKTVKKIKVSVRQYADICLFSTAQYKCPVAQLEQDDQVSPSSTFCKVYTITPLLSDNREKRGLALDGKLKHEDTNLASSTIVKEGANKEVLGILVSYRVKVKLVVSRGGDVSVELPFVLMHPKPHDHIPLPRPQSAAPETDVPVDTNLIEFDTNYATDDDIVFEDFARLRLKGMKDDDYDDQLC
T3 sequence (Q5NUL3 1-377 isoform Q5NUL3-1): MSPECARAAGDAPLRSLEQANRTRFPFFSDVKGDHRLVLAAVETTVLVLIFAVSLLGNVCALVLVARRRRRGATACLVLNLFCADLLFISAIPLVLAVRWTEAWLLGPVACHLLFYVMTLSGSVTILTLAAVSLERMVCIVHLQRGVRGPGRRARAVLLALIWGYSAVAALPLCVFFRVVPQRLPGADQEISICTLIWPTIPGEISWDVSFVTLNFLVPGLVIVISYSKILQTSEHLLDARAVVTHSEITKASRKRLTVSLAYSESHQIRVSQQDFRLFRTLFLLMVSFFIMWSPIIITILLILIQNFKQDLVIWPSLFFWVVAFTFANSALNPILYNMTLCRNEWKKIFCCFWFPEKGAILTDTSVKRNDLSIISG
T3 sequence (P32121 whole entry partner): as the sequence (P32121 whole entry partner, one chain of several) above

As to `CC(Cc1cc(F)c(OCc2c(C(F)(F)F)ccn2-c2ccc(F)cc2)c(F)c1)C(=O)O` (stereo not drawn) [Compound 65, 3-(3,5-difluoro-4-[[1-(4-fluorophenyl)-3-(trifluoromethyl)-1H-pyrrol-2-yl]methoxy]phenyl)-2-methylpropanoic acid], the EC50 (in general, the midpoint of the concentration-response curve) in test [1] amounted to 809 nM; on Human GPR120 short form [2], 547 nM.

Regarding `CCc1ccc(-n2ccc(C(F)(F)F)c2COc2c(F)cc(CC(C)C(=O)O)cc2F)cc1` (stereo not drawn) [Compound 61, 3-(4-[[1-(4-ethylphenyl)-3-(trifluoromethyl)-1H-pyrrol-2-yl]methoxy]-3,5-difluorophenyl)-2-methylpropanoic acid], the EC50 in test [1] worked out at 639 nM; at Human GPR120 short form [2], 236 nM.

For `Cc1ccc(-n2ccc(C(F)(F)F)c2COc2c(F)cc(CC(C)C(=O)O)cc2F)cc1` (stereo not drawn) [Compound 60, 3-(3,5-difluoro-4-[[1-(4-methylphenyl)-3-(trifluoromethyl)-1H-pyrrol-2-yl]methoxy]phenyl)-2-methylpropanoic acid], the EC50 in test [1] was 549 nM; at Human GPR120 short form [2], 186 nM.

As for `CC(Cc1cc(F)c(OCc2c(C(F)(F)F)ccn2-c2ccc(Cl)c(F)c2)c(F)c1)C(=O)O` (stereo not drawn) [Compound 69, 3-(4-[[1-(4-chloro-3-fluorophenyl)-3-(trifluoromethyl)-1H-pyrrol-2-yl]methoxy]-3,5-difluorophenyl)-2-methylpropanoic acid], the half-maximal effective concentration (EC50) in test [1] amounted to 630 nM; at Human GPR120 short form [2], 488 nM.

Regarding `O=C(O)CCc1cc(F)c(OCc2c(C(F)(F)F)ccn2-c2ccc(Cl)c(F)c2)c(F)c1` [Compound 67, 3-(4-[[1-(4-chloro-3-fluorophenyl)-3-(trifluoromethyl)-1H-pyrrol-2-yl]methoxy]-3,5-difluorophenyl)propanoic acid], the EC50 in test [1] stood at 206 nM; at Human GPR120 short form [2], 368 nM.

Turning to `Cc1ccc(-n2ccc(C(F)(F)F)c2COc2c(F)cc(CC(C)C(=O)O)cc2F)cc1F` (stereo not drawn) [Compound 64, 3-(3,5-difluoro-4-[[1-(3-fluoro-4-methylphenyl)-3-(trifluoromethyl)-1H-pyrrol-2-yl]methoxy]phenyl)-2-methylpropanoic acid], the EC50 was determined as 264 nM in test [1] and 212 nM on Human GPR120 short form [2].

On to `O=C(O)CCc1cc(F)c(OCc2c(C(F)(F)F)ccn2-c2ccc(Cl)cc2)c(F)c1` [Compound 70, 3-(4-((1-(4-chlorophenyl)-3-(trifluoromethyl)-1H-pyrrol-2-yl)methoxy)-3,5-difluorophenyl)propanoic acid], for which the EC50 in test [1] is 69 nM; at Human GPR120 short form [2] it was 80 nM.

`Cc1ccc(-n2ccc(C(F)(F)F)c2COc2c(F)cc(CCC(=O)O)cc2F)c(F)c1` [Compound 72, 3-(3,5-Difluoro-4-{[1-(2-fluoro-4-methylphenyl)-3-(trifluoromethyl)-1H-pyrrol-2-yl]methoxy}phenyl)propanoic acid]: the EC50 in test [1] came out at 624 nM; on Human GPR120 short form [2], 118 nM.

As for `O=C(O)CCc1cc(F)c(OCc2c(C(F)(F)F)ccn2-c2ccc(Cl)cc2F)c(F)c1` [Compound 71, 3-(4-{[1-(4-Chloro-2-fluorophenyl)-3-(trifluoromethyl)-1H-pyrrol-2-yl]methoxy}-3,5-difluorophenyl)propanoic acid], the EC50 was determined as 624 nM in test [1] and 179 nM on Human GPR120 short form [2].

In the case of `Cc1ccc(-n2ccc(C(F)(F)F)c2COc2ccc(CCC(=O)O)c(C)c2C)c(F)c1` [Compound 73, 3-(4-{[1-(2-Fluoro-4-methylphenyl)-3-(trifluoromethyl)-1H-pyrrol-2-yl]methoxy}-2,3-dimethylphenyl)propanoic acid], the EC50 in test [1] came to 749 nM; on Human GPR120 short form [2] it was 210 nM.

On to `Cc1c(CCC(=O)O)ccc(OCc2c(C(F)(F)F)ccn2-c2ccc(F)cc2F)c1C` [Compound 77, 3-(4-{[1-(2,4-Difluorophenyl)-3-(trifluoromethyl)-1H-pyrrol-2-yl]methoxy}-2,3-dimethylphenyl)propanoic acid], for which the EC50 in test [1] turned out to be 1060 nM; on Human GPR120 short form [2], 266 nM.

With `Cc1c(CCC(=O)O)ccc(OCc2c(C(F)(F)F)ccn2-c2ccc(Cl)cc2F)c1C` [Compound 74, 3-(4-{[1-(4-Chloro-2-fluorophenyl)-3-(trifluoromethyl)-1H-pyrrol-2-yl]methoxy}-2,3-dimethylphenyl)propanoic acid], the EC50 in test [1] turned out to be 797 nM; on Human GPR120 short form [2] it was 167 nM.

As to `Cc1ccc(-n2ccc(C(F)(F)F)c2COc2c(F)cc(CCC(=O)O)cc2F)cc1F` [Compound 62, 3-(3,5-difluoro-4-[[1-(3-fluoro-4-methylphenyl)-3-(trifluoromethyl)-1H-pyrrol-2-yl]methoxy]phenyl)propanoic acid], the EC50 turned out to be 96 nM in test [1] and 262 nM at Human GPR120 short form [2].

For the compound `Cc1c(CCC(=O)O)ccc(OCc2c(C(F)(F)F)ccn2-c2ccc(Cl)c(F)c2)c1C` [Compound 68, 3-(4-{[1-(4-Chloro-3-fluorophenyl)-3-(trifluoromethyl)-1H-pyrrol-2-yl]methoxy}-2,3-dimethylphenyl)propanoic acid], the 50% effective concentration (EC50) was found to be 311 nM in test [1] and 357 nM at Human GPR120 short form [2].

As to `Cc1ccc(-n2ccc(C(F)(F)F)c2COc2ccc(CCC(=O)O)c(C)c2C)cc1F` [Compound 66, 3-(4-{[1-(3-Fluoro-4-methylphenyl)-3-(trifluoromethyl)-1H-pyrrol-2-yl]methoxy}-2,3-dimethylphenyl)propanoic acid], the figures for the EC50 (in test [1]; on Human GPR120 short form [2]) were 412 nM and 315 nM, respectively.

For `OCCCc1ccc(OCc2c(C(F)(F)F)ccn2-c2ccc(Br)cc2)c(F)c1F` [Compound 21, 3-(4-{[1-(4-Bromophenyl)-3-(trifluoromethyl)-1H-pyrrol-2-yl]methoxy}-2,3-difluorophenyl)propan-1-ol], the EC50 at Human GPR120 short form [2] stood at 282 nM; in test [3] it was 87 nM; at Human GPR120 short form [4], 709 nM.

On to `CCc1ccc(-n2ccc(C(F)(F)F)c2COc2c(F)cc(CCCO)cc2F)cc1` [Compound 33, 3-(4-[[1-(4-ethylphenyl)-3-(trifluoromethyl)-1H-pyrrol-2-yl]methoxy]-3,5-difluoro-phenyl)propan-1-ol], for which the EC50 on Human GPR120 short form [2] is 82 nM; in test [3], 48 nM; at Human GPR120 short form [4], 434 nM.
